Measured values published in paper PMC6973011, “Stafia‐1: a STAT5a‐Selective Inhibitor Developed via Docking‐Based Screening of in Silico O‐Phosphorylated Fragments” (Chemistry (Weinheim an Der Bergstrasse, Germany), 2019).
Substitutions are numbered along the chain they refer to.

Experiments:
STAT3 = STAT3 (Homo sapiens, UniProt P40763); test: Fluorescence polarization competitive binding assay, STAT3 SH2 domain; conditions: read-out: STAT3 inhibition at 200 μM
Text: Expression and purification of STAT1, STAT3, STAT4, STAT5a, STAT5b, STAT5a Trp566Arg, STAT5b Arg566Trp, STAT5b 6M, STAT5b 7M, STAT6, and Lck have previously been described.[4, 12] STAT proteins were purified over a single His-Bind resin (Millipore) column.
Wild-type and mutant STAT5a/b proteins used for activity analysis of 20 were purified over two successive His-Bind resin columns.[4, 13]
Fluorescence Polarization assays
Competitive binding assays based on fluorescence polarization were essentially carried out as described.[14] Unless stated otherwise, the following final concentration of proteins were used:
STAT4; 105 nM for STAT6; 30 nM for Lck. Final concentration of all peptides: 10 nM. Peptides used: 5-carboxyfluorescein-GpYLVLDKW for STAT5a/b and point mutants thereof; 5-carboxyfluorescein-GpYLPQTV-NH2 for STAT3; 5-carboxyfluorescein-GpYDKPHVL for STAT1; 5-carboxyfluorescein-GpYLPQNID-OH for STAT4; 5-carboxyfluorescein-
analysis of 20 against wild-type (wt) STAT5a/b and STAT5a/b point mutants, the following concentrations of double-purified protein were used, which reflect the approximate Kd values of the interactions with 5-carboxyfluorescein-GpYLVLDKW: STAT5a wt: 147 nM; STAT5b wt:
STAT5b 6M: 80 nM; STAT5b 7M: 282 nM. Assay buffer: 10 mM Tris (pH 8.0), 50 mM NaCl, 1 mM EDTA, 1 mM DTT, 0.1 % Nonidet P-40 substitute, and 2 % DMSO in water. A major part of the pipetting was done using a Biomek FXp sceening robot (Beckman-Coulter). Protein and test compounds were incubated for 1 h, followed by addition of the fluorescein-labeled peptide.
Fluorescence polarization was measured after another hour using an Infinite F500 plate reader (Tecan). IC50 values were converted to Ki-values using the published equation.[15]

[1] = molecular target: T1, STAT5a Trp566Arg/Lys644Met (Homo sapiens, UniProt P42229, K644M/W566R); test: Fluorescence polarization assay, double mutant STAT5a Trp566Arg/Lys644Met; format: binding; conditions: FP assay
T1 construct: made in house
T1 sequence (P42229 1-794 W566R/K644M): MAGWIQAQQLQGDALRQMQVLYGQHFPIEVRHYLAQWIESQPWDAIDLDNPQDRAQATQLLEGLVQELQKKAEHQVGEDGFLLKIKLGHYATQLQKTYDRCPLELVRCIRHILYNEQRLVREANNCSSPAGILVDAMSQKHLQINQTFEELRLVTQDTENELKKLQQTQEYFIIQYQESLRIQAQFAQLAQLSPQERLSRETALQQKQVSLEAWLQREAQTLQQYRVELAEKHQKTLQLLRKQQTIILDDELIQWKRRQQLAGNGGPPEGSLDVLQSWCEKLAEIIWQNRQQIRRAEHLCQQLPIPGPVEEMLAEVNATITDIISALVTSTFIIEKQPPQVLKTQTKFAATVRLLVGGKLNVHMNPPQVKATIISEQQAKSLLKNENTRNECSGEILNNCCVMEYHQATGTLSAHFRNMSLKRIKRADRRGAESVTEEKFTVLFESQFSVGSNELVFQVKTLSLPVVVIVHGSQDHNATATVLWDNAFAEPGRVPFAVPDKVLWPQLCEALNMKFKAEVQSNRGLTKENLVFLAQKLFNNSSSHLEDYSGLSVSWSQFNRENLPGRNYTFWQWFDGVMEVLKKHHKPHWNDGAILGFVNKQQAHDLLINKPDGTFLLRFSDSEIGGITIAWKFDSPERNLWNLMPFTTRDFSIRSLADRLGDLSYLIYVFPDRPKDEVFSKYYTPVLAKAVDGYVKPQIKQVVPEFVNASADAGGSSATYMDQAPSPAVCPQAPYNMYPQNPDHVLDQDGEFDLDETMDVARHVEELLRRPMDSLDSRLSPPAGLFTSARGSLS

STAT5b = molecular target: T2, STAT5b (Homo sapiens, UniProt P51692); test: Fluorescence polarization competitive binding assay, STAT5b; conditions: read-out: STAT5b inhibition at 200 μM
T2 construct: made in house
T2 sequence (P51692 1-787): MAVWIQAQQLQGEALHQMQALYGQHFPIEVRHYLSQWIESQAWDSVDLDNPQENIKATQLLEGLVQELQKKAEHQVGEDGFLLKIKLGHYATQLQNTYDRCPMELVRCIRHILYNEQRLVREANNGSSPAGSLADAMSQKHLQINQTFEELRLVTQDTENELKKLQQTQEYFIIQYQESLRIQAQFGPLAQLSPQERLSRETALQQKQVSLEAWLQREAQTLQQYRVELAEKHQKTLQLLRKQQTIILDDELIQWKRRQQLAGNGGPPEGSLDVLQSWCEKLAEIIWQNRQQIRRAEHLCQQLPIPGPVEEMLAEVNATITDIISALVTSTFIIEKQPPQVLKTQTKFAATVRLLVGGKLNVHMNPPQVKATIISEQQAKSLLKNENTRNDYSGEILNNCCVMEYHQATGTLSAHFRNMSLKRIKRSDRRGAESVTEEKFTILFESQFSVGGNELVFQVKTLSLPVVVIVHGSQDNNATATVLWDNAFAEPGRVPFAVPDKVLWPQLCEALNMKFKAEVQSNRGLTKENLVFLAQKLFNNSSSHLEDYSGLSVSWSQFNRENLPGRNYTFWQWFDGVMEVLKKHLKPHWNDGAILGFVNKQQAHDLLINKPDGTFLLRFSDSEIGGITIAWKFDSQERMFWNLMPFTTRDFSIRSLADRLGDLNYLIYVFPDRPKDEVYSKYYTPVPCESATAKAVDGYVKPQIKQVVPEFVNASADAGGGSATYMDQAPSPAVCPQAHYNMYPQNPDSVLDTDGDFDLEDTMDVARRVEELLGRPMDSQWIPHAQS

STAT5a = molecular target: T3, STAT5a (Homo sapiens, UniProt P42229); test: Fluorescence polarization competitive binding assay, STAT5a
T3 construct: made in house
T3 sequence (P42229 1-794): T1 sequence (P42229 1-794 W566R/K644M) with R566W, M644K

Chain of STAT3 (P40763 whole entry, species assumed, the tested form may be a part): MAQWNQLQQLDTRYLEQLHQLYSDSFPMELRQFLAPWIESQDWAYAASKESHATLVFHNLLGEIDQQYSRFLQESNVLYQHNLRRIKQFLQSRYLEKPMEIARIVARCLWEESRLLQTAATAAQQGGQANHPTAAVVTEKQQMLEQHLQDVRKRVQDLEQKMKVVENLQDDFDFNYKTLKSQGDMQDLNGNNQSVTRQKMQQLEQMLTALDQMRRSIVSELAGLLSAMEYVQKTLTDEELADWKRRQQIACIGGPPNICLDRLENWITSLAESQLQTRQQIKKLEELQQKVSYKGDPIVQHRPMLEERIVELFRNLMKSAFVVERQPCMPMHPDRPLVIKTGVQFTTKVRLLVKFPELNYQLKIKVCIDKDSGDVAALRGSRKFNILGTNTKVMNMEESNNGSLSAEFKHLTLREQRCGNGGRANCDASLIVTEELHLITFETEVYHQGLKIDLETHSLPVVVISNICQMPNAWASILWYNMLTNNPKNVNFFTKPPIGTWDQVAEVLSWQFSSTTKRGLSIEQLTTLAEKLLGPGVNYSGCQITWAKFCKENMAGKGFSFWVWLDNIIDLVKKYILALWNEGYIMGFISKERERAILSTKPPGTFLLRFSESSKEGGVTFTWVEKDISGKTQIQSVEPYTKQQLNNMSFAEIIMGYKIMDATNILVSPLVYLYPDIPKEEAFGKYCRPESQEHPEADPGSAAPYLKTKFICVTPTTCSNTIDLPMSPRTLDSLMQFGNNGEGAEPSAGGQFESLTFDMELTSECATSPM

`COc1cc(-c2cc(OP(=O)(O)O)cc(-c3cc(OC)c(OC)c(OC)c3)c2)cc(OC)c1OC` [Compound 20] showed an inhibition at 200 µM (STAT3) of 27 ± 2%, an inhibition at 200 µM [1] of 44 ± 4% and an inhibition at 200 µM (STAT5b) of 37 ± 5%. For the same compound, the IC50 (STAT5a) was 22.2 ± 3.6 µM, the Ki (STAT5a) was 10.9 ± 1.8 µM and the “selectivity for STAT5a over STAT5b” value (STAT5a; FP assays, STAT5a vs STAT5b) was “at least 9 fold”.
